In PubChem BioAssay (NCI):
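Dose response: 5 concentrations. Exposure: 48 h. Format: 96-well plates. Endpoint: linear interpolation; highest concentration if not reached. At the GI50, growth is halved. TGI: concentration producing complete growth inhibition.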

Legend:
Experiment in all cases: inhibition of tumour cell growth, NCI panel, 48 h
EKVX NSCLC = tested on: EKVX NSCLC
SNB-75 CNS = tested on: SNB-75 CNS
M14 melanoma = tested on: M14 melanoma
K-562 leukemia = tested on: K-562 leukemia
MOLT-4 leukemia = tested on: MOLT-4 leukemia
U251 CNS = tested on: U251 CNS
MALME-3M melanoma = tested on: MALME-3M melanoma
KM12 colon = tested on: KM12 colon
ACHN renal = tested on: ACHN renal
NCI-H23 lung = tested on: NCI-H23 lung
SF-539 CNS = tested on: SF-539 CNS
MDA-MB-231 breast = tested on: MDA-MB-231 breast
MDA-MB-435 = tested on: MDA-MB-435
SK-MEL-5 melanoma = tested on: SK-MEL-5 melanoma
SF-295 CNS = tested on: SF-295 CNS
SN12C renal = tested on: SN12C renal
HCC-2998 colon = tested on: HCC-2998 colon
OVCAR-4 ovarian = tested on: OVCAR-4 ovarian
CCRF-CEM leukemia = tested on: CCRF-CEM leukemia
BT-549 breast = tested on: BT-549 breast
HCT-116 colon = tested on: HCT-116 colon
HOP-62 NSCLC = tested on: HOP-62 NSCLC
SNB-19 CNS = tested on: SNB-19 CNS
HT29 colon = tested on: HT29 colon
A498 renal = tested on: A498 renal
SK-MEL-28 melanoma = tested on: SK-MEL-28 melanoma
T-47D breast = tested on: T-47D breast
MCF7 breast = tested on: MCF7 breast
LOX IMVI melanoma = tested on: LOX IMVI melanoma
SW-620 colon = tested on: SW-620 colon
HS 578T breast = tested on: HS 578T breast
SR leukemia = tested on: SR leukemia
NCI-H460 lung = tested on: NCI-H460 lung
NCI-H226 lung = tested on: NCI-H226 lung
SK-OV-3 ovarian = tested on: SK-OV-3 ovarian
RPMI-8226 leukemia = tested on: RPMI-8226 leukemia
COLO 205 colon = tested on: COLO 205 colon
TK-10 renal = tested on: TK-10 renal
UACC-257 melanoma = tested on: UACC-257 melanoma
IGROV1 ovarian = tested on: IGROV1 ovarian
NCI/ADR-RES ovarian = tested on: NCI/ADR-RES ovarian
HCT-15 colon = tested on: HCT-15 colon
SK-MEL-2 melanoma = tested on: SK-MEL-2 melanoma
A549 NSCLC = tested on: A549 NSCLC
OVCAR-5 ovarian = tested on: OVCAR-5 ovarian
DU-145 prostate = tested on: DU-145 prostate
HOP-92 NSCLC = tested on: HOP-92 NSCLC
PC-3 prostate = tested on: PC-3 prostate
CAKI-1 renal = tested on: CAKI-1 renal
NCI-H522 lung = tested on: NCI-H522 lung
OVCAR-3 ovarian = tested on: OVCAR-3 ovarian
786-0 renal = tested on: 786-0 renal
SF-268 CNS = tested on: SF-268 CNS
HL-60(TB) leukemia = tested on: HL-60(TB) leukemia
OVCAR-8 ovarian = tested on: OVCAR-8 ovarian
UACC-62 melanoma = tested on: UACC-62 melanoma

`Cc1nc(N)sc1-c1csc(Nc2ccc(C(F)(F)F)cc2)n1` gave a GI50 (EKVX NSCLC) of 3.83 µM, a TGI (EKVX NSCLC) of 17.6 µM and a GI50 (SNB-75 CNS) of 3.41 µM. It also gave a TGI (SNB-75 CNS) of 16.9 µM, a GI50 (M14 melanoma) of 3.25 µM and a TGI (M14 melanoma) of 14.8 µM. It also gave a GI50 (K-562 leukemia) of 3.27 µM, a TGI (K-562 leukemia) of 31 µM and a GI50 (MOLT-4 leukemia) of 2.71 µM. The TGI (MOLT-4 leukemia) was 21.1 µM, the GI50 (U251 CNS) was 7.17 µM and the TGI (U251 CNS) was 26.2 µM. The GI50 (MALME-3M melanoma) was 4.11 µM, the TGI (MALME-3M melanoma) was 17.6 µM and the GI50 (KM12 colon) was 3.55 µM. For the same molecule, the TGI (KM12 colon) was 14.5 µM, the GI50 (ACHN renal) was 2.75 µM and the TGI (ACHN renal) was 13.9 µM. It also gave a GI50 (NCI-H23 lung) of 5.57 µM, a TGI (NCI-H23 lung) of 21.7 µM and a GI50 (SF-539 CNS) of 6.69 µM. It also gave a TGI (SF-539 CNS) of 20 µM, a GI50 (MDA-MB-231 breast) of 3.45 µM and a TGI (MDA-MB-231 breast) of 17.5 µM. The GI50 (MDA-MB-435) was 4.43 µM, the TGI (MDA-MB-435) was 17.4 µM and the GI50 (SK-MEL-5 melanoma) was 3.32 µM. It also gave a TGI (SK-MEL-5 melanoma) of 11.9 µM, a GI50 (SF-295 CNS) of 3.08 µM and a TGI (SF-295 CNS) of 15.1 µM. It also gave a GI50 (SN12C renal) of 6.72 µM, a TGI (SN12C renal) of 21 µM and a GI50 (HCC-2998 colon) of 4.66 µM. The TGI (HCC-2998 colon) was 17.3 µM, the GI50 (OVCAR-4 ovarian) was 3.63 µM and the TGI (OVCAR-4 ovarian) was 16.7 µM. For the same molecule, the GI50 (CCRF-CEM leukemia) was 3.22 µM, the TGI (CCRF-CEM leukemia) was 53 µM and the GI50 (BT-549 breast) was 2.03 µM. The TGI (BT-549 breast) was 6.75 µM, the GI50 (HCT-116 colon) was 3.36 µM and the TGI (HCT-116 colon) was 16 µM. For the same molecule, the GI50 (HOP-62 NSCLC) was 7.86 µM, the TGI (HOP-62 NSCLC) was 26.4 µM and the GI50 (SNB-19 CNS) was 11.9 µM. It also gave a TGI (SNB-19 CNS) of 24.8 µM, a GI50 (HT29 colon) of 2.49 µM and a TGI (HT29 colon) of 7.09 µM. It also gave a GI50 (A498 renal) of 11.9 µM, a TGI (A498 renal) of 25.1 µM and a GI50 (SK-MEL-28 melanoma) of 10.2 µM. For the same molecule, the TGI (SK-MEL-28 melanoma) was 21.9 µM, the GI50 (T-47D breast) was 1.65 µM and the TGI (T-47D breast) was 10.1 µM. The GI50 (MCF7 breast) was 2.65 µM, the TGI (MCF7 breast) was 16 µM and the GI50 (LOX IMVI melanoma) was 2.44 µM. It also gave a TGI (LOX IMVI melanoma) of 9.9 µM, a GI50 (SW-620 colon) of 4.92 µM and a TGI (SW-620 colon) of 19.5 µM. It also gave a GI50 (HS 578T breast) of 2.84 µM, a TGI (HS 578T breast) of 23.6 µM and a GI50 (SR leukemia) of 3.6 µM. For the same molecule, the TGI (SR leukemia) was 24.2 µM, the GI50 (NCI-H460 lung) was 3.44 µM and the TGI (NCI-H460 lung) was 15.7 µM. The GI50 (NCI-H226 lung) was 2.72 µM, the TGI (NCI-H226 lung) was 24.3 µM and the GI50 (SK-OV-3 ovarian) was 16.4 µM. It also gave a TGI (SK-OV-3 ovarian) of 33.4 µM, a GI50 (RPMI-8226 leukemia) of 3.98 µM and a TGI (RPMI-8226 leukemia) of 72.3 µM. The GI50 (COLO 205 colon) was 11.9 µM, the TGI (COLO 205 colon) was 36.9 µM and the GI50 (TK-10 renal) was 8.73 µM. It also gave a TGI (TK-10 renal) of 21.4 µM, a GI50 (UACC-257 melanoma) of 9.37 µM and a TGI (UACC-257 melanoma) of 22.1 µM. It also gave a GI50 (IGROV1 ovarian) of 2.01 µM, a TGI (IGROV1 ovarian) of 14.7 µM and a GI50 (NCI/ADR-RES ovarian) of 5.36 µM. The TGI (NCI/ADR-RES ovarian) was 21 µM, the GI50 (HCT-15 colon) was 3.02 µM and the TGI (HCT-15 colon) was 11.9 µM. It also gave a GI50 (SK-MEL-2 melanoma) of 1.76 µM, a TGI (SK-MEL-2 melanoma) of 16.4 µM and a GI50 (A549 NSCLC) of 7.34 µM. For the same molecule, the TGI (A549 NSCLC) was 35.8 µM, the GI50 (OVCAR-5 ovarian) was 4.42 µM and the TGI (OVCAR-5 ovarian) was 18.9 µM. It also gave a GI50 (DU-145 prostate) of 4.59 µM, a TGI (DU-145 prostate) of 17.7 µM and a GI50 (HOP-92 NSCLC) of 2.63 µM. It also gave a TGI (HOP-92 NSCLC) of 15 µM, a GI50 (PC-3 prostate) of 4.12 µM and a TGI (PC-3 prostate) of 22.2 µM. The GI50 (CAKI-1 renal) was 3.62 µM, the TGI (CAKI-1 renal) was 17.5 µM and the GI50 (NCI-H522 lung) was 4.75 µM. It also gave a TGI (NCI-H522 lung) of 18.7 µM, a GI50 (OVCAR-3 ovarian) of 4.41 µM and a TGI (OVCAR-3 ovarian) of 17.3 µM. The GI50 (786-0 renal) was 4.41 µM, the TGI (786-0 renal) was 17.5 µM and the GI50 (SF-268 CNS) was 6.75 µM. The TGI (SF-268 CNS) was 22.6 µM, the GI50 (HL-60(TB) leukemia) was 13.2 µM and the TGI (HL-60(TB) leukemia) was 32.2 µM. The GI50 (OVCAR-8 ovarian) was 11.1 µM, the TGI (OVCAR-8 ovarian) was 25.6 µM and the GI50 (UACC-62 melanoma) was 8.61 µM. It also gave a TGI (UACC-62 melanoma) of 21 µM.
